The values that follow come from paper PMC9231138, “Dihydrotanshinone I Enhances Cell Adhesion and Inhibits Cell Migration in Osteosarcoma U−2 OS Cells through CD44 and Chemokine Signaling” (Molecules, 2022).

What all share (format): cell-based, human
The subject of one experiment is cyclin D1. Nature of the experiment: RT-PCR cyclin D1 mRNA in U−2 OS cells. To be noted: 24 h. The procedure:
(§1) Total RNA within cells was extracted by the RNAeasy™ Animal Long RNA Isolation Kit with Spin Column (Shanghai, Beyotime); the concentrations and OD260/OD280 and OD230/OD260 values were measured by NanoDrop. Five micrograms of RNA was used for reverse transcription; each sample was diluted to 16 μL, and 4 μL of synthesized premix solution (5×) was added, then the mixtures were placed in a 42 °C water bath for 10 min, then an 80 °C water bath for 10 min to deactivate reverse transcriptase. After reverse transcription, each sample was diluted to 140 μL. PCR amplification was carried out by the ABI700 real-time PCR system, and the amplification reaction was detected with a SYBR probe. After PCR, actin and GAPDH were used as internal references, and the relative standard curve method (2^−ΔΔcT) determined the relative expression of mRNA.

The subject of a further experiment is phospho-STAT3. The experiment is described as follows: Western blot phospho-STAT3. To be noted: 24 h. The method, then:
(§2) Sample preparation: U−2 OS cells seeded in 10 cm Petri dishes were collected and washed with ice-cold PBS and RIPA lysis buffer with PMAF; phosphatase inhibitor was added, and the tubes were placed on ice for 30 min and vortexed for 30 s at intervals of 10 min. The samples were centrifuged at 12,000 g at 4 °C for 15 min, and the supernatants were collected in new centrifuge tubes. The protein samples were placed on ice, and the concentration of each protein sample was measured by the BCA kit (Thermo). The protein concentration was adjusted to the same by milli Q ultrapure water.
(§3) Loading and running the gel: Equal amounts of protein were loaded into the wells of the 10% SDS-PAGE gel, along with molecular weight markers, and 15 μg of total protein from the cell lysate was loaded. We then ran the gel for 45 min at 200 V.
(§4) Transferring the protein: We prepared the transfer stack as follows: negative plate, sponge, filter paper, gel, PVDF membrane, filter paper, sponge, and positive plate. The transfer was for 90 min at 200 mA.
Antibody staining: We blocked the membrane for 1 h at room temperature using 5% blocking solution, then incubated the membrane with appropriate dilutions of the primary antibody in the blocking solution overnight at 4 °C. We then washed the membrane with TBST reagent 3 times, 5 min each. Then, we incubated the membrane with the recommended dilution of labeled secondary antibody in blocking solution at room temperature for 1 h and washed the membrane with TBST reagent 3 times, 5 min each. For signal development, super-enhanced chemiluminescence detection reagents were added to the surface of the membrane for 1 min, then excess reagent was removed, and the membrane was covered in transparent plastic wrap. Images were acquired using darkroom development techniques for chemiluminescence and analyzed by Image J.
(A western blot detects proteins with antibodies after separation by electrophoresis.)

In another experiment the test system is HeLa cells. Nature of the experiment: Cell adhesion against trypsin digestion, HeLa cells. To be noted: DS-1 10.0, 15.0, 20.0 μM for 24 h. An excerpt:
Dihydrotanshinone I enhances cell adhesion and inhibits cell migration in osteosarcoma U-2 OS cell through CD44
Lanyan Fan1, 2, Chen Peng2, Xiaoping Zhu1, 2, Yawen Liang2, Ti anyi Xu2, Peng Xu1 and Shihua Wu1, 2* 1 Joint Research Centre for Engineering Biology, Zhejiang University-University of Edinburgh Institute, Zhejiang University, Haining 314400, China
2 Research Center of Siyuan Natural Pharmacy and Biotoxicology, College of Life Sciences, Zhejiang University, Hangzhou, Zhejiang Province 310058, China
* Correspondence: Drwushihua@zju.edu.cn, Shihuawu@intl.zju.edu.cn; Tel.: +86-13968131541 Legends for Supplementary figures
Figure S1. The chemical structures of major tanshinones isolated from Salvia miltiorrhiza rhizome.
Figure S2. The effects of DS-1 on HeLa cell adhesion on cell culture plates against trypsin digestion. (A) Hela cells were seeded at 80000 per well in 6-well plates for 12 h, then treated with 0, 10.0, 15.0, 20.0 μM DS-1 for 24 h.
After that, cells were washed by PBS solution and digested by 400 μL 0.25% trypsin. During the digestion, cellular morphology was recorded by inverted microscope with camera every 30 seconds. The digestion time […]
Figure S3. […]
cellular morphology was recorded by inverted microscope every 30 seconds. […]
Figure S4. […] The relative expression of CD44 was detected by Western Blot and […]

For the next experiment, the system named is p53. The experiment is described as follows: Western blot p53. To be noted: DS−1 2.5, 5.0, and 7.5 µM, 24 h. The method, then: as §2, §3, §4
(§5) Antibody staining: We blocked the membrane for 1 h at room temperature using 5% blocking solution, then incubated the membrane with appropriate dilutions of the primary antibody in the blocking solution overnight at 4 °C. […] Images were acquired using darkroom development techniques for chemiluminescence and analyzed by Image J.

The next experiment has as its system CD44. The experiment is described as follows: RNA-seq transcriptome, CD44 expression. To be noted: DS−1 6.25 µM, 24 h. The procedure:
Sample preparation: U−2 OS cells were seeded in a 10 cm culture dish, and we cultured them to the logarithmic growth phase, suctioned the previous medium, and added new medium with DS−1 at 0 and 6.25 μM; each group was repeated two times. After 24 h of culture, the dish was washed with PBS reagent 3 times. One milliliter of TRIzol reagent was added to every dish for cell lysate and then collected in centrifuge tubes.
Transcriptome sequencing and analysis were carried out by Novogene Bioinformatics Technology Co., Ltd. (Beijing, China).
Raw data in the fastq format were firstly processed through in-house Perl scripts. In this step, clean data were obtained by removing reads containing adapter or containing ploy-N and low-quality reads from raw data. […]
Reference genome and gene model annotation files were downloaded from the genome website directly. The index of the reference genome was built using Hisat2 v2.0.5 (https://github.com/DaehwanKimLab/hisat2, accessed on 4 May 2022), and paired-end clean reads were aligned to the reference genome using Hisat2 v2.0.5. FeatureCounts v1.5.0-p3 (https://github.com/byee4/featureCounts, accessed on 4 May 2022) was used to count the reads numbers mapped to each gene. Then the Fragments PerKilobase of transcript sequence per Millions […] (FPKMs) of each gene were calculated based on the length of the gene and reads’ count mapped to this gene. […]

A further experiment deals with vimentin. Nature of the experiment: RT-PCR vimentin mRNA in U−2 OS cells. To be noted: 24 h. The method, then:
as §1

The test system of a further experiment is STAT3. Nature of the experiment: Western blot STAT3. To be noted: DS−1 2.5, 5.0, and 7.5 µM, 24 h. The procedure: as §2, §3, §4, §5

For `Cc1cccc2c3c(ccc12)C1=C(C(=O)C3=O)[C@@H](C)CO1` [DS−1, 15,16-Dihydrotanshinone I], the figures for the “cyclin D1 mRNA, fold of the control group” value in the experiment on cyclin D1 (first of three DS−1 doses (2.5 µM per Fig. 5 legend)), with cyclin D1 (second of three DS−1 doses (5.0 µM per Fig. 5 legend)) and with cyclin D1 (third of three DS−1 doses (7.5 µM per Fig. 5 legend)) were 0.27 ± 0.06 fold, 0.29 ± 0.06 fold and 0.20 ± 0.04 fold, respectively. Further, the “phospho-STAT3, fold of the control group” value in the experiment with phospho-STAT3 (DS−1 2.5 µM) is on record as 0.59 ± 0.09 fold; in the experiment on phospho-STAT3 (DS−1 5.0 µM) it was 0.43 ± 0.03 fold; with phospho-STAT3 (DS−1 7.5 µM), 0.32 ± 0.03 fold. In the experiment on phospho-STAT3 (DS−1 2.5, 5.0, and 7.5 µM), the “ratio of pSTAT3/STAT3” value is “significantly decreased”. For the same compound, the “cell adhesion against trypsin digestion on cell culture plates” value in the experiment with HeLa cells is “not significant”. Moreover, the “level of p53” value in the experiment on p53 was “significantly increased”. Further, the “upregulation of CD44 in transcriptome” value in the experiment with CD44 turned out to be 2.94 ± 0.55 fold. Besides, the figures for the “vimentin mRNA, fold of the control group” value with vimentin (DS−1 2.5 µM), in the experiment with vimentin (DS−1 5.0 µM) and in the experiment on vimentin (DS−1 7.5 µM) were 0.67 ± 0.11 fold, 0.51 ± 0.11 fold and 0.12 ± 0.16 fold, respectively. Also, the “total protein content of STAT3” value in the experiment on STAT3 is listed as “did not change significantly”.
